Measured values published in patent US10433553B2, “Salts of N-(1,3,4-oxadiazol-2-yl) aryl carboxylic acid amides and the use of same as herbicides” (BAYER CROPSCIENCE AKTIENGESELLSCHAFT, priority 2015, dated 2019).
Like-named read-outs stand apart in the source and are kept apart here.

Key:
VERPE = experiment: Post-emergence herbicidal action against harmful plants; assay type: in vivo; conditions: dosage 5 g/ha, assessed visually after about 3 weeks
Description: (§1) 2. Post-Emergence Herbicidal Action Against Harmful Plants
(§2) Seeds of monocotyledonous and dicotyledonous weed and crop plants are laid out in sandy loam in wood-fiber pots, covered with soil and cultivated in a greenhouse under good growth conditions. 2 to 3 weeks after sowing, the test plants are treated at the one-leaf stage.

ALOMY [1] = experiment: as above; assay type: in vivo; conditions: dosage 5 g/ha, assessed visually after about 3 weeks
Description: as §1, §2

AMARE = experiment: as above; assay type: in vivo, Amaranthus retroflexus; conditions: dosage 5 g/ha, assessed visually after about 3 weeks
Description: as §1, §2

TRZAS [2] = experiment: Post-emergence damage to crop plants; assay type: in vivo; conditions: dosage 5 g/ha, assessed visually after about 3 weeks
Description: as §1, §2

ALOMY [3] = experiment: Pre-emergence herbicidal action against harmful plants; assay type: in vivo; conditions: scored visually after 3 weeks
Description: (§3) 1. Pre-Emergence Herbicidal Action Against Harmful Plants
(§4) Seeds of monocotyledonous and dicotyledonous weed plants and crop plants are laid out in wood-fiber pots in sandy loam and covered with soil. […] The comparative tests were conducted by way of example on some weed plants and crop plants.

CYPES = experiment: as above; assay type: in vivo; conditions: scored visually after 3 weeks
Description: as §3, §4

ABUTH = experiment: as above; assay type: in vivo, Abutilon theophrasti; conditions: scored visually after 3 weeks
Description: as §3, §4

STEME = experiment: as above; assay type: in vivo, Stellaria media; conditions: dosage 20 g/ha, scored visually after 3 weeks
From the text: as §3

TRZAS [4] = experiment: Pre-emergence damage to crop plants; assay type: in vivo; conditions: dosage 20 g/ha, scored visually after 3 weeks
From the text: as §3

ZEAMX [5] = experiment: Post-emergence damage to crop plants; assay type: in vivo; conditions: dosage 5 g/ha, assessed visually after about 3 weeks
Description: as §1, §2

ZEAMX [6] = conditions: pre-emergence, scored visually after 3 weeks
Description: as §3, §4

[7] = dosage 20 g/ha, 100% = plants have died, 0% = like control plants

Cc1nnc(NC(=O)c2ccc(C(F)(F)F)c([S+](C)[O-])c2C)o1 (stereo not drawn) [drawing 56, reference compound]
Activity against VERPE (VERPE): 50% | Activity against ALOMY (ALOMY [1]): 60%

Cc1nnc(NC(=O)c2ccc(C(F)(F)F)c(S(C)(=O)=O)c2C)o1 [drawing 49]
Activity against AMARE (AMARE): 60%

Cc1nnc([N-]C(=O)c2ccc(C(F)(F)F)c([S+](C)[O-])c2Cl)o1.[Na+] (stereo not drawn)
Damage to TRZAS (TRZAS [2]): 0% | Activity against VERPE (VERPE): 70%

Cc1nnc(NC(=O)c2ccc(C(F)(F)F)c([S+](C)[O-])c2C)o1 (stereo not drawn) [drawing 58, reference compound]
Activity against VERPE (VERPE): 50% | Activity against ALOMY (ALOMY [1]): 60%

Cc1nnc(NC(=O)c2ccc(C(F)(F)F)c(S(C)(=O)=O)c2C)o1 [drawing 28]
Activity against ALOMY (ALOMY [3]; dosage 20 g/ha): 20% | Activity against CYPES (CYPES; dosage 20 g/ha): 40% | Activity against ABUTH (ABUTH; [7]): 70%

Cc1nnc([N-]C(=O)c2ccc(C(F)(F)F)c(S(C)(=O)=O)c2C)o1.[K+] [drawing 9]
Activity against STEME (STEME): 90% | Damage to TRZAS (TRZAS [4]): 0%

Cc1nnc(NC(=O)c2ccc(C(F)(F)F)c(S(C)(=O)=O)c2C)o1 [drawing 17]
Activity against ABUTH (ABUTH; [7]): 100%

Cc1nnc(NC(=O)c2ccc(C(F)(F)F)c([S+](C)[O-])c2Cl)o1 (stereo not drawn) [drawing 32]
Activity against ALOMY (ALOMY [3]; dosage 20 g/ha): 20% | Activity against CYPES (CYPES; dosage 20 g/ha): 60% | Activity against ABUTH (ABUTH; [7]): 60%

Cc1nnc([N-]C(=O)c2ccc(C(F)(F)F)c(S(C)(=O)=O)c2C)o1.[K+] [drawing 47]
Damage to ZEAMX (ZEAMX [5]): 0% | Activity against AMARE (AMARE): 60%

Cc1nnc(NC(=O)c2ccc(C(F)(F)F)c(S(C)(=O)=O)c2C)o1 [drawing 16]
Activity against ABUTH (ABUTH; [7]): 70%

Cc1nnc(NC(=O)c2ccc(C(F)(F)F)c(S(C)(=O)=O)c2C)o1 [drawing 40, reference compound]
Activity against AMARE (AMARE): 80%

CCc1nnc(NC(=O)c2ccc(S(=O)(=O)CC)c(C3=NOC(COC)C3)c2Cl)o1 (stereo not drawn) [drawing 36]
Activity against ALOMY (ALOMY [3]; dosage 320 g/ha): 10% | Activity against CYPES (CYPES; dosage 320 g/ha): 80% | Activity against ABUTH (ABUTH; dosage 320 g/ha): 90%

Cc1nnc(NC(=O)c2ccc(C(F)(F)F)c(S(C)(=O)=O)c2C)o1 [drawing 19]
Activity against ABUTH (ABUTH; [7]): 100%

CCc1nnc(NC(=O)c2ccc(S(=O)(=O)CC)c(C3=NOC(COC)C3)c2Cl)o1 (stereo not drawn) [drawing 37]
Activity against ALOMY (ALOMY [3]; dosage 320 g/ha): 20% | Activity against CYPES (CYPES; dosage 320 g/ha): 100% | Activity against ABUTH (ABUTH; dosage 320 g/ha): 80% | Damage to ZEAMX (ZEAMX [6]; dosage 320 g/ha): 10%

Cc1nnc(NC(=O)c2ccc(C(F)(F)F)c(S(C)(=O)=O)c2C)o1 [drawing 43]
Activity against AMARE (AMARE): 100%

CCc1nnc(NC(=O)c2ccc(S(=O)(=O)CC)c(C3=NOC(COC)C3)c2Cl)o1 (stereo not drawn) [drawing 38]
Activity against ALOMY (ALOMY [3]; dosage 320 g/ha): 10% | Activity against CYPES (CYPES; dosage 320 g/ha): 80% | Activity against ABUTH (ABUTH; dosage 320 g/ha): 10%

Cc1nnc(NC(=O)c2ccc(C(F)(F)F)c(S(C)(=O)=O)c2C)o1 [drawing 20]
Activity against ABUTH (ABUTH; [7]): 70%

Cc1nnc(NC(=O)c2ccc(C(F)(F)F)c(S(C)(=O)=O)c2C)o1 [drawing 14]
Activity against ABUTH (ABUTH; [7]): 70%

Cc1nnc(NC(=O)c2ccc(C(F)(F)F)c([S+](C)[O-])c2Cl)o1 (stereo not drawn) [drawing 57]
Activity against VERPE (VERPE): 80%

Cc1nnc(NC(=O)c2ccc(C(F)(F)F)c(S(C)(=O)=O)c2C)o1 [drawing 22]
Activity against ABUTH (ABUTH; [7]): 70%

Cc1nnc([N-]C(=O)c2ccc(C(F)(F)F)c(S(C)(=O)=O)c2C)o1.[Na+] [drawing 51]
Damage to TRZAS (TRZAS [2]): 0% | Activity against VERPE (VERPE): 100% | Activity against ALOMY (ALOMY [1]): 80%

Cc1nnc(NC(=O)c2ccc(C(F)(F)F)c(S(C)(=O)=O)c2C)o1 [drawing 54, reference compound]
Activity against VERPE (VERPE): 60% | Activity against ALOMY (ALOMY [1]): 60%

Cc1nnc(NC(=O)c2ccc(C(F)(F)F)c(S(C)(=O)=O)c2C)o1 [drawing 52, reference compound]
Activity against VERPE (VERPE): 60% | Activity against ALOMY (ALOMY [1]): 60%

Cc1nnc(NC(=O)c2ccc(C(F)(F)F)c(S(C)(=O)=O)c2C)o1 [drawing 27]
Activity against ALOMY (ALOMY [3]; dosage 20 g/ha): 60% | Activity against CYPES (CYPES; dosage 20 g/ha): 60% | Activity against ABUTH (ABUTH; [7]): 100%

Cc1nnc(NC(=O)c2ccc(C(F)(F)F)c(S(C)(=O)=O)c2C)o1 [drawing 41]
Activity against AMARE (AMARE): 100%

Cc1nnc(NC(=O)c2ccc(C(F)(F)F)c(S(C)(=O)=O)c2C)o1 [drawing 13]
Activity against ABUTH (ABUTH; [7]): 100%

Cc1nnc(NC(=O)c2ccc(C(F)(F)F)c(S(C)(=O)=O)c2C)o1 [drawing 26]
Activity against ALOMY (ALOMY [3]; dosage 20 g/ha): 20% | Activity against CYPES (CYPES; dosage 20 g/ha): 40% | Activity against ABUTH (ABUTH; [7]): 70%

Cc1nnc(NC(=O)c2ccc(C(F)(F)F)c(S(C)(=O)=O)c2C)o1 [drawing 23]
Activity against ALOMY (ALOMY [3]; dosage 20 g/ha): 70% | Activity against CYPES (CYPES; dosage 20 g/ha): 70% | Activity against ABUTH (ABUTH; [7]): 100%

CCc1nnc([N-]C(=O)c2ccc(S(=O)(=O)CC)c(C3=NOC(COC)C3)c2Cl)o1.[Na+] (stereo not drawn)
Activity against ALOMY (ALOMY [3]; dosage 320 g/ha): 30% | Activity against CYPES (CYPES; dosage 320 g/ha): 80% | Activity against ABUTH (ABUTH; dosage 320 g/ha): 90% | Damage to ZEAMX (ZEAMX [6]; dosage 320 g/ha): 0%

Cc1nnc(NC(=O)c2ccc(C(F)(F)F)c(S(C)(=O)=O)c2C)o1 [drawing 18]
Activity against ABUTH (ABUTH; [7]): 70%

Cc1nnc([N-]C(=O)c2ccc(C(F)(F)F)c(S(C)(=O)=O)c2C)o1.[Na+] [drawing 7]
Activity against ABUTH (ABUTH; [7]): 100% | Damage to TRZAS (TRZAS [4]): 0%

Cc1nnc(NC(=O)c2ccc(C(F)(F)F)c(S(C)(=O)=O)c2C)o1 [drawing 45]
Activity against AMARE (AMARE): 100%

Cc1nnc(NC(=O)c2ccc(C(F)(F)F)c(S(C)(=O)=O)c2C)o1 [drawing 50, reference compound]
Activity against AMARE (AMARE): 40%

Cc1nnc(NC(=O)c2ccc(C(F)(F)F)c(S(C)(=O)=O)c2C)o1 [drawing 53]
Activity against VERPE (VERPE): 90% | Activity against ALOMY (ALOMY [1]): 80%

Cc1nnc(NC(=O)c2ccc(C(F)(F)F)c(S(C)(=O)=O)c2C)o1 [drawing 15]
Activity against ABUTH (ABUTH; [7]): 100%

Cc1nnc([N-]C(=O)c2ccc(C(F)(F)F)c(S(C)(=O)=O)c2C)o1.[Na+] [drawing 25]
Activity against ALOMY (ALOMY [3]; dosage 20 g/ha): 60% | Activity against CYPES (CYPES; dosage 20 g/ha): 40% | Damage to ZEAMX (ZEAMX [6]; dosage 20 g/ha): 0%

Cc1nnc(NC(=O)c2ccc(C(F)(F)F)c([S+](C)[O-])c2Cl)o1 (stereo not drawn) [drawing 33]
Activity against ALOMY (ALOMY [3]; dosage 20 g/ha): 60%

Cc1nnc([N-]C(=O)c2ccc(C(F)(F)F)c(S(C)(=O)=O)c2C)o1.[Na+] [drawing 39]
Damage to ZEAMX (ZEAMX [5]): 0% | Activity against AMARE (AMARE): 100%

Cc1nnc(NC(=O)c2ccc(C(F)(F)F)c(S(C)(=O)=O)c2C)o1 [drawing 46, reference compound]
Activity against AMARE (AMARE): 80%

Cc1nnc(NC(=O)c2ccc(C(F)(F)F)c(S(C)(=O)=O)c2C)o1 [drawing 48, reference compound]
Activity against AMARE (AMARE): 40%

Cc1nnc(NC(=O)c2ccc(C(F)(F)F)c(S(C)(=O)=O)c2C)o1 [drawing 8]
Activity against ABUTH (ABUTH; [7]): 70%

Cc1nnc(NC(=O)c2ccc(C(F)(F)F)c(S(C)(=O)=O)c2C)o1 [drawing 10, reference compound]
Activity against STEME (STEME): 70%

Cc1nnc(NC(=O)c2ccc(C(F)(F)F)c(S(C)(=O)=O)c2C)o1 [drawing 30]
Activity against ALOMY (ALOMY [3]; dosage 20 g/ha): 20% | Activity against CYPES (CYPES; dosage 20 g/ha): 40% | Activity against ABUTH (ABUTH; [7]): 70%

Cc1nnc(NC(=O)c2ccc(C(F)(F)F)c(S(C)(=O)=O)c2C)o1 [drawing 29]
Activity against ALOMY (ALOMY [3]; dosage 20 g/ha): 10% | Activity against CYPES (CYPES; dosage 20 g/ha): 70% | Activity against ABUTH (ABUTH; [7]): 100%

Cc1nnc(NC(=O)c2ccc(C(F)(F)F)c(S(C)(=O)=O)c2C)o1 [drawing 24]
Activity against ALOMY (ALOMY [3]; dosage 20 g/ha): 20% | Activity against CYPES (CYPES; dosage 20 g/ha): 40% | Activity against ABUTH (ABUTH; [7]): 70%

Cc1nnc(NC(=O)c2ccc(C(F)(F)F)c([S+](C)[O-])c2Cl)o1 (stereo not drawn) [drawing 34]
Activity against ALOMY (ALOMY [3]; dosage 20 g/ha): 20% | Activity against CYPES (CYPES; dosage 20 g/ha): 60% | Activity against ABUTH (ABUTH; [7]): 60%

Cc1nnc(NC(=O)c2ccc(C(F)(F)F)c(S(C)(=O)=O)c2C)o1 [drawing 42, reference compound]
Activity against AMARE (AMARE): 80%

Cc1nnc(NC(=O)c2ccc(C(F)(F)F)c(S(C)(=O)=O)c2C)o1 [drawing 11]
Activity against STEME (STEME): 90%

Cc1nnc(NC(=O)c2ccc(C(F)(F)F)c(S(C)(=O)=O)c2C)o1 [drawing 12, reference compound]
Activity against STEME (STEME): 70%

Cc1nnc(NC(=O)c2ccc(C(F)(F)F)c(S(C)(=O)=O)c2C)o1 [drawing 21]
Activity against ABUTH (ABUTH; [7]): 100%

Cc1nnc(NC(=O)c2ccc(C(F)(F)F)c(S(C)(=O)=O)c2C)o1 [drawing 44, reference compound]
Activity against AMARE (AMARE): 80%
